For data set [1] the following is noted: chronic/long-term.
The subject of a further data set is Anas platyrhynchos. The settings on record: acute; oral; unspecified; mortality.
Another data set concerns Apis mellifera. The settings on record: acute; dermal; mortality.
The test system of another data set is Canidae. The settings on record: chronic; duration: 1 years; oral; Dog Other; hematological.
The next data set concerns Colinus virginianus. The settings on record: for LD50: acute, oral, mortality.
The next data set relates to Daphnia magna. The settings on record: chronic/long-term; duration: 21 days; mortality.
For the next data set, the system named is Mus musculus. The settings on record: acute; oral; mortality.
For the next data set, the system named is Oncorhynchus mykiss. The settings on record: chronic/long-term; growth.
In another data set the test system is Rattus norvegicus. The settings on record: oral.
The next data set relates to Tagia sp. The settings on record: acute; duration: 14 days; mortality.

In general, NOAEL refers to the highest tested level that showed no adverse finding.

With `O=C(NC(=O)c1c(F)cccc1F)Nc1ccc(Cl)cc1` [Diflubenzuron], the NOEL in [1] turned out to be 3680 mg/kg-day. Also, the LD50 with Anas platyrhynchos was greater than 5000 mg/kg; with Apis mellifera, 0.05 µg/piece; in the data set on Colinus virginianus (diet) it was greater than 1210 mg/kg-day; in the data set with Colinus virginianus, greater than 5000 mg/kg; in the data set on Mus musculus, greater than 4640 mg/kg; in the data set with Rattus norvegicus (acute, mortality), 4640 mg/kg. Moreover, the NOAEL amounted to 10 mg/kg-day in the data set on Canidae and 11 mg/kg-day in the data set with Rattus norvegicus (subchronic, duration: 13 weeks, hematological). Also, the NOEC in the data set with Colinus virginianus (reproduction developmental) is 42.7 mg/kg-day; in the data set with Daphnia magna, 4e-05 mg/L; in the data set with Oncorhynchus mykiss it was 0.2 mg/L. In the data set with Tagia sp., this compound came in with an LC50 greater than 1000 mg/kg.

For the origin of these results see EPA's ToxValDB 9.5 (doi:10.2903/j.efsa.2009.332r).
